Patent US12162888B2, “Carboxamides as ubiquitin-specific protease inhibitors” (Valo Early Discovery, Inc., priority 2018, dated 2024)

Target: T1, USP25 (USP25-His6, Boston Biochem E-546) (Homo sapiens, UniProt Q9UHP3)
T1 construct: His6 (C); purchased Boston Biochem E-546
T1 sequence (Q9UHP3 1-1055): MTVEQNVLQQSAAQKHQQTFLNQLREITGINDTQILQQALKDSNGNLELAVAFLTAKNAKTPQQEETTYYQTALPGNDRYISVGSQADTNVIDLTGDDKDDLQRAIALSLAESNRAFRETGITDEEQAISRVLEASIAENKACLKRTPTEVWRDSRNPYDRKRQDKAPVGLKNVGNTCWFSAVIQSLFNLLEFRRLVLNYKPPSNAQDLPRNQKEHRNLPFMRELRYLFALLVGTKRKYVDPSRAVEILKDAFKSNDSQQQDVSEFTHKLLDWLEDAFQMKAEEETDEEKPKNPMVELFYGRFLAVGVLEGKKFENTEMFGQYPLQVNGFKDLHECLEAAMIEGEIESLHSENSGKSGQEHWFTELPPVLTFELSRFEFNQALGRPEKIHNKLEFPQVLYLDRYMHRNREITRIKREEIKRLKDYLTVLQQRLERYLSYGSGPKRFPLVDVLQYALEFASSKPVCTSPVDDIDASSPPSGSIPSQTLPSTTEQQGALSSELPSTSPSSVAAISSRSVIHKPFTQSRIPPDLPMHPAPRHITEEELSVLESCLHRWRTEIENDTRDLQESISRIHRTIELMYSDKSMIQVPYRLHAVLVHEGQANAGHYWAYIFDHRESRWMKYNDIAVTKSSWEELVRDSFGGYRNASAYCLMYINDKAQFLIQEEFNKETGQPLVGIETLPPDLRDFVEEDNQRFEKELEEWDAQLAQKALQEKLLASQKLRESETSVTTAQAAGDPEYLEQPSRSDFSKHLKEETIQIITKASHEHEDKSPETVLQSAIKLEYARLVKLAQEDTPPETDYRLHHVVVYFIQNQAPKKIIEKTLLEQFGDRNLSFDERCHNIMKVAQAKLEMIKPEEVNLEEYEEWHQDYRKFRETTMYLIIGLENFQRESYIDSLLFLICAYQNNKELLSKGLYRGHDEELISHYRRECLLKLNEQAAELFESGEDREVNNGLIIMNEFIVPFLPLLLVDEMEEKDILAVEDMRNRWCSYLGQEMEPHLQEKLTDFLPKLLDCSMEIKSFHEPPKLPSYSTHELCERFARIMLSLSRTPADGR
Assay: Ubiquitin-Rhodamine 110 Assay for USP25 Activity, Example A-3
Assay type: biochemical
Conditions: Ubiquitin-Rhodamine 110 assay, Example A-3; read-out: USP25 A-3 IC50 range
Outline: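 USP25-His6 ([…] final as stated) preincubated 30 min with compound (10-point, 25 μM to 1.3 nM), then Ub-Rh110 at 25 nM (<<Km) added in pH 8.0 Tris buffer with BME, BGG and Triton X-100. Reaction stopped after 45 min at room temperature with 10 mM citric acid; fluorescence read at 485/535 nm.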

Q: How did the IC50 turn out when Cc1ccc2c(N)c(C(=O)N[C@H]3CCc4cc(N5CC6CNCC(C5)O6)cc(F)c4C3)sc2n1 (single isomer, unassigned) [Example 11-39] was run?
A: > 2000 nM

Q: Which IC50 does the source give for Cc1cnc2c(N)c(C(=O)N[C@@H]3CCc4c(C#N)c(N5CC6CCC(C5)N6)cc(F)c4C3)sc2n1 (single isomer, unassigned) [Example 14-20] here?
A: > 2000 nM

Q: With Cc1ccc2c(N)c(C(=O)N[C@H]3CCc4nc(N5C[C@H](N)[C@@]6(CCOC6)C5)ccc4C3)sc2n1 [Example 437, 3-amino-N-[(6S)-2-[(5R,9R)-9-amino-2-oxa-7-azaspiro[4.4]nonan-7-yl]-5,6,7,8-tetrahydroquinolin-6-yl]-6-methylthieno[2,3-b]pyridine-2-carboxamide] as the molecule, how does the IC50 read?
A: > 2000 nM

Q: With Cc1cnc2c(N)c(C(=O)N[C@H]3CCc4c(C#N)c(N5CCNCC5)cc(F)c4C3)sc2n1 (single isomer, unassigned) [Example 14-12] as the molecule, how does the IC50 read?
A: > 2000 nM

Q: For CCn1ccc2cc(C(=O)N[C@H]3CCc4nc(N5C[C@H](COC)[C@H](N)C5)ccc4C3)cnc21 (single isomer, unassigned) [Example 401], which IC50 is on record?
A: > 2000 nM

Q: Which IC50 does the source give for Cc1cnc2c(N)c(C(=O)N[C@H]3CCc4c(ccc(N5CCNCC5)c4F)C3)sc2n1 (single isomer, unassigned) [Example 21-10] here?
A: > 2000 nM

Q: With Cc1cnc2c(N)c(C(=O)N[C@@H]3CCc4c(ccc(N5CCNCC5)c4F)C3)sc2n1 (single isomer, unassigned) [Example 21-9] as the molecule, how does the IC50 read?
A: 200 to 2000 nM

Same assay, conditions: biochemical IC50 range, Ubiquitin-Rhodamine 110 assay, Example A-3; read-out: USP25 A-3

Q: For Cc1ccc2c(N)c(C(=O)N[C@H]3COc4cc(N5C[C@H](N)[C@](C)(CF)C5)ccc4C3)sc2n1 [Example 658, 3-amino-N-[(3R)-7-[(3R,4R)-4-amino-3-(fluoromethyl)-3-methylpyrrolidin-1-yl]-3,4-dihydro-2H-1-benzopyran-3-yl]-6-methylthieno[2,3-b]pyridine-2-carboxamide], which IC50 is on record?
A: 50 to 200 nM

Q: Which IC50 does the source give for Cc1ccc2c(N)c(C(=O)N[C@H]3COc4cc(N5C[C@@H]6CCNC[C@@H]65)cc(F)c4C3)sc2n1 [Example 665, 3-amino-N-[(3R)-7-[(1R,6S)-3,8-diazabicyclo[4.2.0]octan-8-yl]-5-fluoro-3,4-dihydro-2H-1-benzopyran-3-yl]-6-methylthieno[2,3-b]pyridine-2-carboxamide] here?
A: 50 to 200 nM
